Measured values taken from article PMC8296573, “Synthesis and Biological Evaluation of Fingolimod Derivatives as Antibacterial Agents” (ACS Omega, 2021).
Values after ≈ are worked out from the molar mass of the structure shown. Read-outs that look alike come from different tables or passages of the source.

What was measured:
S. aureus ATCC 25923 [1] = experiment: Antibacterial activity, pre-exposure (planktonic cells and biofilm formation); format: cell-based, Staphylococcus aureus; details: for MIC / inhibition at 5 µM / inhibition at 10 µM / inhibition at 15 µM / inhibition at 25 µM: Staphylococcus aureus, ATCC25923; for inhibition at 5 µM / inhibition at 10 µM / inhibition at 15 µM / inhibition at 25 µM / Average inhibition %, biofilms viability / Average inhibition %, planktonic cells viability: pre-exposure, ± SD
How it was run: (§1)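 Compounds are diluted in DMSO and plated, then bacteria are added to test prevention of growth and biofilm formation. After 18 h at 37 °C with shaking, planktonic OD and resazurin fluorescence are measured. Washed biofilms receive resazurin (30 min S. aureus, 60 min A. baumannii, 90 min P. aeruginosa, 37 °C), then crystal violet.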

S. aureus ATCC 25923 [2] = experiment: Antibacterial activity, post-exposure on preformed 18-h-old biofilms; format: cell-based, Staphylococcus aureus; details: ± SD; for inhibition at 25 µM / inhibition at 50 µM / inhibition at 100 µM / inhibition at 200 µM: Staphylococcus aureus; for inhibition at 25 µM: ATCC25923, 25 µM; for inhibition at 50 µM: ATCC25923, 50 µM; for inhibition at 100 µM: ATCC25923, 100 µM; for inhibition at 200 µM: ATCC25923, 200 µM
How it was run: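 Compounds were applied to preformed 18-h biofilms after medium change and left 24 h. Read-outs: planktonic OD plus resazurin fluorescence (20 μM), biofilm metabolic activity by resazurin 30 min at 37 °C, then biomass by crystal violet absorbance at 595 nm after ethanol fixation.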

A. baumannii NCTC 13423 = experiment: Antibacterial activity, pre-exposure; format: cell-based, Acinetobacter baumannii; details: for Average inhibition %, biofilms viability / Average inhibition %, planktonic cells viability / inhibition at 10 µM / inhibition at 15 µM / inhibition at 25 µM / inhibition at 50 µM: A. baumannii NCTC 13423, pre-exposure, ± SD; for inhibition at 10 µM / inhibition at 15 µM / inhibition at 25 µM / inhibition at 50 µM / MIC: Acinetobacter baumannii, NCTC13423
How it was run: as §1

P. aeruginosa ATCC 9027 = experiment: Antibacterial activity, pre-exposure; format: cell-based, Pseudomonas aeruginosa; details: for Average inhibition %, biofilms viability / Average inhibition %, planktonic cells viability / inhibition at 50 µM / inhibition at 100 µM / inhibition at 150 µM / inhibition at 200 µM: P. aeruginosa ATCC 9027, pre-exposure, ± SD; for MIC / inhibition at 50 µM / inhibition at 100 µM / inhibition at 150 µM / inhibition at 200 µM: Pseudomonas aeruginosa; for inhibition at 50 µM / inhibition at 100 µM / inhibition at 150 µM / inhibition at 200 µM: ATCC9027
How it was run: as §1

[3] = 10 µM, read-out: Average inhibition %, biofilms biomass
[4] = 10 µM, read-out: Average inhibition %, planktonic cells turbidity
[5] = 15 µM, read-out: Average inhibition %, biofilms biomass
[6] = 15 µM, read-out: Average inhibition %, planktonic cells turbidity
[7] = 25 µM, read-out: Average inhibition %, biofilms biomass
[8] = 25 µM, read-out: Average inhibition %, planktonic cells turbidity
[9] = read-out: Average inhibition %, biofilms biomass
[10] = read-out: Average inhibition %, planktonic cells turbidity
[11] = 50 µM, read-out: Average inhibition %, biofilms biomass
[12] = 50 µM, read-out: Average inhibition %, planktonic cells turbidity

`CCCCCCCCc1cccc(CCC(N)(CO)CO)c1` [Compound 43, 2-Amino-2-(3-octylphenethyl)propane-1,3-diol] gave an MIC (S. aureus ATCC 25923 [1]; lowest concentration with no visible growth (>90% inhibition of turbidity and viability of planktonic cells), 18 h, read-out: MIC S. aureus ATCC 25923) of 15 to 25 µM (≈ 4.61 to 7.69 µg/mL), an inhibition at 5 µM (S. aureus ATCC 25923 [1]; 5 µM, read-out: Average inhibition %, biofilms biomass) of 33.6 ± 16% and an inhibition at 5 µM (S. aureus ATCC 25923 [1]; 5 µM, read-out: Average inhibition %, planktonic cells turbidity) of 25.6 ± 36.8%. For the same compound, the inhibition at 10 µM (S. aureus ATCC 25923 [1]; [3]) was 29.2 ± 14.5%, the inhibition at 10 µM (S. aureus ATCC 25923 [1]; [4]) was 36.2 ± 26.1% and the inhibition at 15 µM (S. aureus ATCC 25923 [1]; [5]) was 66.4 ± 27.2%. For the same compound, the inhibition at 15 µM (S. aureus ATCC 25923 [1]; [6]) was 61.4 ± 37.8%, the inhibition at 25 µM (S. aureus ATCC 25923 [1]; [7]) was 92.2 ± 6.9% and the inhibition at 25 µM (S. aureus ATCC 25923 [1]; [8]) was 98.9 ± 0.6%. For the same compound, the MIC (S. aureus ATCC 25923 [1]; read-out: MIC (S. aureus)) was 15 to 25 µM (≈ 4.61 to 7.69 µg/mL), the “Average inhibition %, biofilms viability” value (S. aureus ATCC 25923 [1]; 5 µM) was 17.4 ± 8.1% and the “Average inhibition %, planktonic cells viability” value (S. aureus ATCC 25923 [1]; 5 µM) was 12.3 ± 21.4%. For the same compound, the “Average inhibition %, biofilms viability” value (S. aureus ATCC 25923 [1]; 10 µM) was 29.1 ± 5.4%, the “Average inhibition %, planktonic cells viability” value (S. aureus ATCC 25923 [1]; 10 µM) was 14.8 ± 15.3% and the “Average inhibition %, biofilms viability” value (S. aureus ATCC 25923 [1]; 15 µM) was 52.5 ± 43.2%. For the same compound, the “Average inhibition %, planktonic cells viability” value (S. aureus ATCC 25923 [1]; 15 µM) was 36.1 ± 55.2%, the “Average inhibition %, biofilms viability” value (S. aureus ATCC 25923 [1]; 25 µM) was 99.7 ± 0% and the “Average inhibition %, planktonic cells viability” value (S. aureus ATCC 25923 [1]; 25 µM) was 99.9 ± 0.2%. The “Average inhibition %, biofilms viability” value (S. aureus ATCC 25923 [2]; 25 µM) was 14.4 ± 14%, the “Average inhibition %, planktonic cells viability” value (S. aureus ATCC 25923 [2]; 25 µM) was 0 ± 0% and the “Average inhibition %, biofilms viability” value (S. aureus ATCC 25923 [2]; 50 µM) was 23.1 ± 5.1%. For the same compound, the “Average inhibition %, planktonic cells viability” value (S. aureus ATCC 25923 [2]; 50 µM) was 12.8 ± 18.3%, the “Average inhibition %, biofilms viability” value (S. aureus ATCC 25923 [2]; 100 µM) was 35.4 ± 15.6% and the “Average inhibition %, planktonic cells viability” value (S. aureus ATCC 25923 [2]; 100 µM) was 61.4 ± 27.6%. The “Average inhibition %, biofilms viability” value (S. aureus ATCC 25923 [2]; 200 µM) was 75.7 ± 18.5%, the “Average inhibition %, planktonic cells viability” value (S. aureus ATCC 25923 [2]; 200 µM) was 98 ± 3.3% and the inhibition at 25 µM (S. aureus ATCC 25923 [2]; [9]) was 38.4 ± 9.2%. The inhibition at 25 µM (S. aureus ATCC 25923 [2]; [10]) was 6.1 ± 8%, the inhibition at 50 µM (S. aureus ATCC 25923 [2]; [9]) was 50.1 ± 4.6% and the inhibition at 50 µM (S. aureus ATCC 25923 [2]; [10]) was 33.5 ± 18.7%. It also gave an inhibition at 100 µM (S. aureus ATCC 25923 [2]; [9]) of 64.7 ± 9.1%, an inhibition at 100 µM (S. aureus ATCC 25923 [2]; [10]) of 48.9 ± 21.5% and an inhibition at 200 µM (S. aureus ATCC 25923 [2]; [9]) of 79.9 ± 12%. The inhibition at 200 µM (S. aureus ATCC 25923 [2]; [10]) was 79.1 ± 6.3%, the “Average inhibition %, biofilms viability” value (A. baumannii NCTC 13423; 10 µM) was 0.2 ± 0.4% and the “Average inhibition %, planktonic cells viability” value (A. baumannii NCTC 13423; 10 µM) was 5.5 ± 0.6%. For the same compound, the “Average inhibition %, biofilms viability” value (A. baumannii NCTC 13423; 15 µM) was 99.2 ± 1.1%, the “Average inhibition %, planktonic cells viability” value (A. baumannii NCTC 13423; 15 µM) was 99.8 ± 0.1% and the “Average inhibition %, biofilms viability” value (A. baumannii NCTC 13423; 25 µM) was 100 ± 1.1%. The “Average inhibition %, planktonic cells viability” value (A. baumannii NCTC 13423; 25 µM) was 99.8 ± 0.2%, the “Average inhibition %, biofilms viability” value (A. baumannii NCTC 13423; 50 µM) was 98.7 ± 2.5% and the “Average inhibition %, planktonic cells viability” value (A. baumannii NCTC 13423; 50 µM) was 99.8 ± 0.1%. The inhibition at 10 µM (A. baumannii NCTC 13423; [3]) was 0.6 ± 1%, the inhibition at 10 µM (A. baumannii NCTC 13423; [4]) was 0% and the inhibition at 15 µM (A. baumannii NCTC 13423; [5]) was 76.9 ± 3.5%. It also gave an inhibition at 15 µM (A. baumannii NCTC 13423; [6]) of 99.1 ± 1.1%, an inhibition at 25 µM (A. baumannii NCTC 13423; [7]) of 81.7 ± 1% and an inhibition at 25 µM (A. baumannii NCTC 13423; [8]) of 99.1 ± 1%. It also gave an inhibition at 50 µM (A. baumannii NCTC 13423; [11]) of 79 ± 3.8%, an inhibition at 50 µM (A. baumannii NCTC 13423; [12]) of 98.3 ± 0.9% and an MIC (A. baumannii NCTC 13423; pre-exposure, Inactive = no activity up to 50 μM, > = some inhibition but no MIC reached, read-out: MIC A. baumannii NCTC 13423) of 15 µM (≈ 4.61 µg/mL). The MIC (A. baumannii NCTC 13423; supplementary molecular formula strings sheet, read-out: MIC (A. baumannii)) was 15 µM (≈ 4.61 µg/mL), the “Average inhibition %, biofilms viability” value (P. aeruginosa ATCC 9027; 50 µM) was 53.1 ± 41.1% and the “Average inhibition %, planktonic cells viability” value (P. aeruginosa ATCC 9027; 50 µM) was 98.1 ± 0.5%. The “Average inhibition %, biofilms viability” value (P. aeruginosa ATCC 9027; 100 µM) was 99.2 ± 2%, the “Average inhibition %, planktonic cells viability” value (P. aeruginosa ATCC 9027; 100 µM) was 99 ± 1.3% and the “Average inhibition %, biofilms viability” value (P. aeruginosa ATCC 9027; 150 µM) was 99.9 ± 0.9%. The “Average inhibition %, planktonic cells viability” value (P. aeruginosa ATCC 9027; 150 µM) was 99.4 ± 0.7%, the “Average inhibition %, biofilms viability” value (P. aeruginosa ATCC 9027; 200 µM) was 100.3 ± 0.5% and the “Average inhibition %, planktonic cells viability” value (P. aeruginosa ATCC 9027; 200 µM) was 99.9 ± 0.1%. For the same compound, the MIC (P. aeruginosa ATCC 9027; ATCC9027, pre-exposure, Inactive = no activity up to 200 μM, > = some inhibition but no MIC reached, read-out: MIC P. aeruginosa ATCC 9027) was 50 to 100 µM (≈ 15.4 to 30.7 µg/mL), the MIC (P. aeruginosa ATCC 9027; ATCC9027, supplementary molecular formula strings sheet, read-out: MIC (P. aeruginosa)) was 50 to 100 µM (≈ 15.4 to 30.7 µg/mL) and the inhibition at 50 µM (P. aeruginosa ATCC 9027; [11]) was 52.1 ± 19.8%. The inhibition at 50 µM (P. aeruginosa ATCC 9027; [12]) was 94.5 ± 0.8%, the inhibition at 100 µM (P. aeruginosa ATCC 9027; 100 µM, read-out: Average inhibition %, biofilms biomass) was 82.4 ± 25.2% and the inhibition at 100 µM (P. aeruginosa ATCC 9027; 100 µM, read-out: Average inhibition %, planktonic cells turbidity) was 97.2 ± 2.5%. The inhibition at 150 µM (P. aeruginosa ATCC 9027; 150 µM, read-out: Average inhibition %, biofilms biomass) was 89.4 ± 13.3%, the inhibition at 150 µM (P. aeruginosa ATCC 9027; 150 µM, read-out: Average inhibition %, planktonic cells turbidity) was 96.9 ± 1.2% and the inhibition at 200 µM (P. aeruginosa ATCC 9027; 200 µM, read-out: Average inhibition %, biofilms biomass) was 94.3 ± 1.4%. For the same compound, the inhibition at 200 µM (P. aeruginosa ATCC 9027; 200 µM, read-out: Average inhibition %, planktonic cells turbidity) was 97.5 ± 0.3%.
